Data taken from patent US8906889B2, “C-3 cycloalkenyl triterpenoids with HIV maturation inhibitory activity” (priority 2012, dated 2014).
Where a name gives a salt, the structure may show the parent alone.

The molecules below were run on recombinant NL4-3 virus (Renilla luciferase, Gag P373S) (assay: HIV cell culture assay (luciferase reporter, MT-2 cells)). Conditions: Renilla, NL43, MT-2 cells infected for 4-5 days with NLRluc recombinants; luciferase activity.
Format: cell-based
Method in brief: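 MT-2 cells were infected for 4–5 days with NL4-3 carrying Renilla luciferase in place of part of nef and the Gag P373S change, in the presence of serially diluted inhibitor. Antiviral activity was quantified as luciferase signal from Dual Luciferase reagent.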

Row | SMILES | EC50 [nM]
1 | C=C(C)[C@@H]1CC[C@]2(NCCO)CC[C@]3(C)[C@H](CC[C@@H]4[C@@]5(C)CC=C(C6=CC[C@@H](C(=O)O)CC6)C(C)(C)[C@@H]5CC[C@]43C)[C@@H]12 [Example 20, (S)-4-((1R,3aS,5aR,5bR,7aR,11aS,11bR,13aR,13bR)-3a-((2-hydroxyethyl)amino)-5a,5b,8,8,11a-pentamethyl-1-(prop-1-en-2-yl)-2,3,3a,4,5,5a,5b,6,7,7a,8,11,11a,11b,12,13,13a,13b-octadecahydro-1H-cyclopenta[a]chrysen-9-yl)cyclohex-3-enecarboxylic acid, TFA] | 1.57
2 | C=C(C)[C@@H]1CC[C@]2(NCCN3CCS(=O)(=O)CC3)CC[C@]3(C)[C@H](CC[C@@H]4[C@@]5(C)CC=C(C6=CCC(C(=O)NS(C)(=O)=O)CC6)C(C)(C)[C@@H]5CC[C@]43C)[C@@H]12 (stereo partly drawn) [Example 21, 4-((1R,3aS,5aR,5bR,7aR,11aS,11bR,13aR,13bR)-3a-((2-(1,1-dioxidothiomorpholino)ethyl)amino)-5a,5b,8,8,11a-pentamethyl-1-(prop-1-en-2-yl)-2,3,3a,4,5,5a,5b,6,7,7a,8,11,11a,11b,12,13,13a,13b-octadecahydro-1H-cyclopenta[a]chrysen-9-yl)-N-(methylsulfonyl)cyclohex-3-enecarboxamide, TFA] | 1.8
3 | C=C(C)[C@@H]1CC[C@]2(NC(=O)OC(C)(C)C)CC[C@]3(C)[C@H](CC[C@@H]4[C@@]5(C)CC=C(C6=CC7(C6)CC(C(=O)O)(C(=O)O)C7)C(C)(C)[C@@H]5CC[C@]43C)[C@@H]12 [Example A1, 6-((1R,3aS,5aR,5bR,7aR,11aS,11bR,13aR,13bR)-3a-((tert-butoxycarbonyl)amino)-5a,5b,8,8,11a-pentamethyl-1-(prop-1-en-2-yl)-2,3,3a,4,5,5a,5b,6,7,7a,8,11,11a,11b,12,13,13a,13b-octadecahydro-1H-cyclopenta[a]chrysen-9-yl)spiro[3.3]hept-5-ene-2,2-dicarboxylic acid] | 570
4 | C=C(C)[C@@H]1CC[C@]2(NCCN(c3ccccc3)S(=O)(=O)C(F)(F)F)CC[C@]3(C)[C@H](CC[C@@H]4[C@@]5(C)CC=C(C6=CC7(C6)CC(C(=O)O)(C(=O)O)C7)C(C)(C)[C@@H]5CC[C@]43C)[C@@H]12 [Example A2, 6-((1R,3aS,5aR,5bR,7aR,11aS,11bR,13aR,13bR)-5a,5b,8,8,11a-pentamethyl-1-(prop-1-en-2-yl)-3a-((2-(1,1,1-trifluoro-N-phenylmethylsulfonamido)ethyl)amino)-2,3,3a,4,5,5a,5b,6,7,7a,8,11,11a,11b,12,13,13a,13b-octadecahydro-1H-cyclopenta[a]chrysen-9-yl)spiro[3.3]hept-5-ene-2,2-dicarboxylic acid] | 1070
5 | C=C(C)[C@@H]1CC[C@]2(NCCN(c3ccc(Cl)cn3)S(=O)(=O)C(F)(F)F)CC[C@]3(C)[C@H](CC[C@@H]4[C@@]5(C)CC=C(C6=CC7(C6)CC(C(=O)O)(C(=O)O)C7)C(C)(C)[C@@H]5CC[C@]43C)[C@@H]12 [Example A3, 6-((1R,3 aS,5aR,5bR,7aR,11aS,11bR,13 aR,13bR)-3a-((2-(N-(5-chloropyridin-2-yl)-1,1,1-trifluoromethylsulfonamido)ethyl)amino)-5a,5b,8,8,11a-pentamethyl-1-(prop-1-en-2-yl)-2,3,3a,4,5,5a,5b,6,7,7a,8,11,11a,11b,12,13,13a,13b-octadecahydro-1H-cyclopenta[a]chrysen-9-yl)spiro[3.3]hept-5-ene-2,2-dicarboxylic acid] | 1750
6 | C=C(C)[C@@H]1CC[C@]2(NCCN3CCOCC3)CC[C@]3(C)[C@H](CC[C@@H]4[C@@]5(C)CC=C(C6=CC7(C6)CC(C(=O)O)(C(=O)O)C7)C(C)(C)[C@@H]5CC[C@]43C)[C@@H]12 [Example A4, 6-((1R,3aS,5aR,5bR,7aR,11aS,11bR,13aR,13bR)-5a,5b,8,8,11a-pentamethyl-3a-((2-morpholinoethyl)amino)-1-(prop-1-en-2-yl)-2,3,3a,4,5,5a,5b,6,7,7a,8,11,11a,11b,12,13,13a,13b-octadecahydro-1H-cyclopenta[a]chrysen-9-yl)spiro[3.3]hept-5-ene-2,2-dicarboxylic acid] | 100
7 | C=C(C)[C@@H]1CC[C@]2(NCCN3CCS(=O)(=O)CC3)CC[C@]3(C)[C@H](CC[C@@H]4[C@@]5(C)CC=C(C6=CCC(C#N)(C(=O)O)CC6)C(C)(C)[C@@H]5CC[C@]43C)[C@@H]12 (stereo partly drawn) [Example A5, 1-cyano-4-((1R,3aS,5aR,5bR,7aR,11aS,11bR,13aR,13bR)-3a-((2-(1,1-dioxidothiomorpholino)ethyl)amino)-5a,5b,8,8,11a-pentamethyl-1-(prop-1-en-2-yl)-2,3,3a,4,5,5a,5b,6,7,7a,8,11,11a,11b,12,13,13a,13b-octadecahydro-1H-cyclopenta[a]chrysen-9-yl)cyclohex-3-enecarboxylic acid] | 4.26
8 | C=C(C)[C@@H]1CC[C@]2(NCCN3CCS(=O)(=O)CC3)CC[C@]3(C)[C@H](CC[C@@H]4[C@@]5(C)CC=C(C6=CCC(Cl)(C(=O)O)CC6)C(C)(C)[C@@H]5CC[C@]43C)[C@@H]12 (stereo partly drawn) [Example A7, 1-chloro-4-((1R,3aS,5aR,5bR,7aR,11aS,11bR,13aR,13bR)-3a-((2-(1,1-dioxidothiomorpholino)ethyl)amino)-5a,5b,8,8,11a-pentamethyl-1-(prop-1-en-2-yl)-2,3,3a,4,5,5a,5b,6,7,7a,8,11,11a,11b,12,13,13a,13b-octadecahydro-1H-cyclopenta[a]chrysen-9-yl)cyclohex-3-enecarboxylic acid] | 2.91
9 | C=C(C)[C@@H]1CC[C@]2(NCCN3CCC(S(C)(=O)=O)CC3)CC[C@]3(C)[C@H](CC[C@@H]4[C@@]5(C)CC=C(C6=CCC(F)(C(=O)O)CC6)C(C)(C)[C@@H]5CC[C@]43C)[C@@H]12 (stereo partly drawn) [Example A9, 1-fluoro-4-((1R,3aS,5aR,5bR,7aR,11aS,11bR,13aR,13bR)-5a,5b,8,8,11a-pentamethyl-3a-((2-(4-(methylsulfonyl)piperidin-1-yl)ethyl)amino)-1-(prop-1-en-2-yl)-2,3,3a,4,5,5a,5b,6,7,7a,8,11,11a,11b,12,13,13a,13b-octadecahydro-1H-cyclopenta[a]chrysen-9-yl)cyclohex-3-enecarboxylic acid] | 2.84
10 | C=C(C)[C@@H]1CC[C@]2(NCCN3CCS(=O)(=O)CC3)CC[C@]3(C)[C@H](CC[C@@H]4[C@@]5(C)CC=C(C6=CCC(CCO)(C(=O)O)CC6)C(C)(C)[C@@H]5CC[C@]43C)[C@@H]12 (stereo partly drawn) [Example A10, 4-((1R,3aS,5aR,5bR,7aR,11aS,11bR,13aR,13bR)-3a-((2-(1,1-dioxidothiomorpholino)ethyl)amino)-5a,5b,8,8,11a-pentamethyl-1-(prop-1-en-2-yl)-2,3,3a,4,5,5a,5b,6,7,7a,8,11,11a,11b,12,13,13a,13b-octadecahydro-1H-cyclopenta[a]chrysen-9-yl)-1-(2-hydroxyethyl)cyclohex-3-enecarboxylic acid] | 4.86
